According to the supplement of paper PMC10307832:

Legend:
Test in all cases: relative viability (nuclei count vs DMSO), 5 days (fraction); higher = more cells survive
[1] = compound: Cc1nc(NC(=O)N2CCC[C@H]2C(N)=O)sc1-c1ccnc(C(C)(C)C(F)(F)F)c1 [Alpelisib]
Outline: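 Vehicle-anchored 1536-well plates of lung cancer cell lines, held overnight at 37 °C, were pinned with five library-drug doses (not always all listed) spaced by √10. No medium change followed over the next 5 days, after which the cells were fixed, permeabilised and Hoechst-stained together and imaged at 4×. Nuclei were counted with MetaXpress, and viability is treated-well nuclei over vehicle-well nuclei, taken as a median across plates. Plates passed with control CV below 25% and at least one doubling.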

[2] = compound: COc1cccc2cc(-c3nc([C@H]4CC[C@H](C(=O)O)CC4)n4ncnc(N)c34)[nH]c12 [OSI-027] + CC(C)C[C@H](NC(=O)[C@H](Cc1ccccc1)NC(=O)c1cnccn1)B(O)O [Bortezomib] (partner 0.002 µM)
Outline: (§1)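 Relative viability divides the nuclei count in treated wells by that in vehicle wells. Lung cancer cell lines were seeded in 1536-well plates, dosed by pin tool the next day, and fixed and stained after 5 days in one step with final 0.05% Triton X-100, 1% formaldehyde and 1 ug/ml Hoechst. Dosing was a single drug or a fixed anchor-drug dose plus five library-drug doses (not always all listed) in √10 steps, and values are medians of duplicate plates imaged at 4×.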

[3] = compound: COc1cccc2cc(-c3nc([C@H]4CC[C@H](C(=O)O)CC4)n4ncnc(N)c34)[nH]c12 [OSI-027] + C[C@]1(O)C[C@@H](c2nc(-c3ccc4ccc(-c5ccccc5)nc4c3)c3c(N)nccn32)C1 [Linsitinib] (partner 1 µM)
Outline: as §1

| Cell Line | relative viability ([1]; 0.04 µM) | relative viability ([1]; 0.1265 µM) | relative viability ([1]; 0.4 µM) | relative viability ([1]; 1.265 µM) | relative viability ([1]; 2 µM, anchor plate) | relative viability ([1]; 4 µM) | relative viability ([2]; first compound 0.01 µM) | relative viability ([2]; first compound 0.03162 µM) | relative viability ([2]; first compound 0.1 µM) | relative viability ([2]; first compound 0.3162 µM) | relative viability ([2]; first compound 1 µM) | relative viability ([3]; first compound 0.01 µM) | relative viability ([3]; first compound 0.03162 µM) | relative viability ([3]; first compound 0.1 µM) | relative viability ([3]; first compound 0.3162 µM) | relative viability ([3]; first compound 1 µM) |
| --- | --- | --- | --- | --- | --- | --- | --- | --- | --- | --- | --- | --- | --- | --- | --- | --- |
| PC-3 [JPC-3] | 1.1 | 1.03 | 1.13 | 0.943 | 0.999 | 1.01 | 0.816 | 0.731 | 0.807 | 0.877 | 0.815 | 0.943 | 1.01 | 0.971 | 0.867 | 0.834 |
| NCI-H1648 | 0.712 | 0.986 | 0.778 | 0.576 |  | 0.257 |  |  |  |  |  |  |  |  |  |  |
| NCI-H1651 | 0.891 | 1.02 | 1.01 | 0.844 | 0.973 | 0.841 | 0.929 | 0.954 | 0.884 | 0.929 | 0.737 | 0.938 |  | 0.801 | 0.514 | 0.285 |
| NCI-H596 | 0.94 | 1.01 | 0.968 | 0.52 | 0.478 | 0.567 | 0.869 | 1.02 | 0.884 | 0.897 | 0.892 | 0.981 | 0.978 | 1.03 | 0.779 | 0.483 |
| HARA | 0.921 | 1.17 | 0.995 | 0.817 | 0.805 | 0.504 | 1.12 | 1.1 | 1.15 | 0.979 | 0.67 | 0.894 | 0.803 | 0.908 | 0.831 | 0.201 |
| NCI-H727 | 0.904 | 0.894 | 0.893 | 0.789 | 0.586 | 0.565 | 0.915 | 0.9 | 0.896 | 0.766 | 0.682 | 0.239 | 0.344 | 0.281 | 0.229 | 0.264 |
| Calu-6 | 0.981 | 0.976 | 1.1 | 0.941 | 0.98 | 0.922 | 1.34 | 0.956 | 1 | 0.906 | 0.896 | 0.959 | 0.87 | 0.864 | 0.673 | 0.504 |
| NCI-H1993 | 0.862 | 0.86 | 0.961 | 0.698 | 0.707 | 0.609 | 1.11 | 0.898 | 0.788 | 0.625 | 0.542 | 0.684 | 0.777 | 0.703 | 0.603 | 0.681 |
| HCC-366 | 0.935 | 1 | 1.09 | 0.947 | 0.443 | 0.627 | 1.18 | 1.2 | 1.03 | 1.07 | 0.733 | 0.632 | 0.713 | 0.64 | 0.445 | 0.0575 |
| IA-LM | 0.979 | 0.854 | 1.02 | 0.753 | 0.799 | 0.717 | 0.736 | 0.765 | 0.438 | 0.21 | 0.113 | 0.31 | 0.383 | 0.41 | 0.263 | 0.131 |
| EPLC-272H | 0.898 | 0.864 | 0.984 | 0.778 | 0.92 | 0.61 | 0.871 | 0.978 | 0.764 | 0.849 | 0.688 | 1.08 | 1.05 | 1.12 | 0.866 | 0.961 |
